Assays:
AKT1 (PKB alpha) = AKT1 (PKB alpha) (Homo sapiens (Human), UniProt P31749); experiment: SelectScreen Kinase Profiling: AKT1; format: biochemical; conditions: 300-350 nM
Text: (§1) Table 2 below highlights the selectivity of a representative compound of the invention against a panel of 50 kinases (assessed using the Invitrogen SelectScreen® Kinase Profiling Service).

CSNK2A1 (CK2 alpha 1) = CSNK2A1 (CK2 alpha 1) (Homo sapiens (Human), UniProt P68400); experiment: SelectScreen Kinase Profiling: CSNK2A1; format: biochemical; conditions: 300-350 nM
Text: as §1

FLT3 = FLT3 (Homo sapiens (Human), UniProt P36888); experiment: SelectScreen Kinase Profiling: FLT3; format: biochemical; conditions: 300-350 nM
Text: as §1

DYRK3 = DYRK3 (Homo sapiens (Human), UniProt O43781); experiment: SelectScreen Kinase Profiling: DYRK3; format: biochemical; conditions: 300-350 nM
Text: as §1

AURKA (Aurora A) = AURKA (Aurora A) (Homo sapiens (Human), UniProt O14965); experiment: SelectScreen Kinase Profiling: AURKA; format: biochemical; conditions: 300-350 nM
Text: as §1

ACVR1B (ALK4) = ACVR1B (ALK4) (Homo sapiens (Human), UniProt P36896); experiment: SelectScreen Kinase Profiling: ACVR1B; format: biochemical; conditions: 300-350 nM
Text: as §1

ROCK1 = ROCK1 (Homo sapiens (Human), UniProt Q13464); experiment: SelectScreen Kinase Profiling: ROCK1; format: biochemical; conditions: 300-350 nM
Text: as §1

Src [1] = target: Src (Homo sapiens (Human), UniProt P12931); experiment: SelectScreen Kinase Profiling: SRC; format: biochemical; conditions: 300-350 nM
MAPK8 (JNK1) = MAPK8 (JNK1) (Homo sapiens (Human), UniProt P45983); experiment: SelectScreen Kinase Profiling: MAPK8; format: biochemical; conditions: 300-350 nM
Text: as §1

LCK = LCK (Homo sapiens (Human), UniProt P06239); experiment: SelectScreen Kinase Profiling: LCK; format: biochemical; conditions: 300-350 nM
Text: as §1

CSNK1G2 (CK1 gamma 2) = CSNK1G2 (CK1 gamma 2) (Homo sapiens (Human), UniProt P78368); experiment: SelectScreen Kinase Profiling: CSNK1G2; format: biochemical; conditions: 300-350 nM
Chain of CSNK1G2 (CK1 gamma 2) (P78368 whole entry): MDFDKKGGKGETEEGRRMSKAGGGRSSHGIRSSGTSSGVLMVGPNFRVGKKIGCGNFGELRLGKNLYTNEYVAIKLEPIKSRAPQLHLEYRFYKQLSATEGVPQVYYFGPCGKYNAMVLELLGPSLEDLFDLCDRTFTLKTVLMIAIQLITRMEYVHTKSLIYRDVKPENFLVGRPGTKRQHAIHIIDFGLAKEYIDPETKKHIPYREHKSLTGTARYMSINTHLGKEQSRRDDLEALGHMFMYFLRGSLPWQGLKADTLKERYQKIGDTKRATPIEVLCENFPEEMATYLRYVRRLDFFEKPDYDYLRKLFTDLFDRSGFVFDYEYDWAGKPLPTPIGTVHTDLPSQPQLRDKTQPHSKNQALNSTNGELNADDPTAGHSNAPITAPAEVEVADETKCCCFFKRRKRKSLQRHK
Text: as §1

TEK (Tie2) = TEK (Tie2) (Homo sapiens (Human), UniProt Q02763); experiment: SelectScreen Kinase Profiling: TEK; format: biochemical; conditions: 300-350 nM
Text: as §1

FGFR1 = FGFR1 (Homo sapiens (Human), UniProt P11362); experiment: SelectScreen Kinase Profiling: FGFR1; format: biochemical; conditions: 300-350 nM
Text: as §1

MAP2K1 (MEK1) = MAP2K1 (MEK1) (Homo sapiens (Human), UniProt Q02750); experiment: SelectScreen Kinase Profiling: MAP2K1; format: biochemical; conditions: 300-350 nM
Text: as §1

MARK2 = MARK2 (Homo sapiens (Human), UniProt Q7KZI7); experiment: SelectScreen Kinase Profiling: MARK2; format: biochemical; conditions: 300-350 nM
Chain of MARK2 (Q7KZI7 whole entry): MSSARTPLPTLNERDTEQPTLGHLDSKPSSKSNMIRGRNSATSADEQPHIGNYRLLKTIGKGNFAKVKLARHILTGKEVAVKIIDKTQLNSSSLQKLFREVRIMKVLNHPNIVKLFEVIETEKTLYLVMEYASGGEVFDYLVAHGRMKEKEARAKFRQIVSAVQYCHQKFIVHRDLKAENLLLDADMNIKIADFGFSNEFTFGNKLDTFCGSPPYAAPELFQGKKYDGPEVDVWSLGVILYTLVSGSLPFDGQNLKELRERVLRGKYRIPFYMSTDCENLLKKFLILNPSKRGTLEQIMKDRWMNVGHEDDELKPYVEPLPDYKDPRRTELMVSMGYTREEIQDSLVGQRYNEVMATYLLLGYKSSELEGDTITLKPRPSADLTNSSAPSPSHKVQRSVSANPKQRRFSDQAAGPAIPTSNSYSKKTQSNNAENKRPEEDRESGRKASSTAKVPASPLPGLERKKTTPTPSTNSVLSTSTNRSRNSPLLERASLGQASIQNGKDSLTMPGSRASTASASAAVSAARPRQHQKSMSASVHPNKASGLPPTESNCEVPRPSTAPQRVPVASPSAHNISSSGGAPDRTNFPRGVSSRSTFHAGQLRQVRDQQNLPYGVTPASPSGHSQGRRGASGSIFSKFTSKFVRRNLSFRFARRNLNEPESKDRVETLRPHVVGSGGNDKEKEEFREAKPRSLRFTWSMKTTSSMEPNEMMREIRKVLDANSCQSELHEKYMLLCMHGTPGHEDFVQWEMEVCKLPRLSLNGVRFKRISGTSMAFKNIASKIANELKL
Text: as §1

MAPK1 (ERK2) = MAPK1 (ERK2) (Homo sapiens (Human), UniProt P28482); experiment: SelectScreen Kinase Profiling: MAPK1; format: biochemical; conditions: 300-350 nM
Text: as §1

KDR (VEGFR2) = KDR (VEGFR2) (Homo sapiens (Human), UniProt P35968); experiment: SelectScreen Kinase Profiling: KDR; format: biochemical; conditions: 300-350 nM
Chain of KDR (VEGFR2) (P35968 20-1356): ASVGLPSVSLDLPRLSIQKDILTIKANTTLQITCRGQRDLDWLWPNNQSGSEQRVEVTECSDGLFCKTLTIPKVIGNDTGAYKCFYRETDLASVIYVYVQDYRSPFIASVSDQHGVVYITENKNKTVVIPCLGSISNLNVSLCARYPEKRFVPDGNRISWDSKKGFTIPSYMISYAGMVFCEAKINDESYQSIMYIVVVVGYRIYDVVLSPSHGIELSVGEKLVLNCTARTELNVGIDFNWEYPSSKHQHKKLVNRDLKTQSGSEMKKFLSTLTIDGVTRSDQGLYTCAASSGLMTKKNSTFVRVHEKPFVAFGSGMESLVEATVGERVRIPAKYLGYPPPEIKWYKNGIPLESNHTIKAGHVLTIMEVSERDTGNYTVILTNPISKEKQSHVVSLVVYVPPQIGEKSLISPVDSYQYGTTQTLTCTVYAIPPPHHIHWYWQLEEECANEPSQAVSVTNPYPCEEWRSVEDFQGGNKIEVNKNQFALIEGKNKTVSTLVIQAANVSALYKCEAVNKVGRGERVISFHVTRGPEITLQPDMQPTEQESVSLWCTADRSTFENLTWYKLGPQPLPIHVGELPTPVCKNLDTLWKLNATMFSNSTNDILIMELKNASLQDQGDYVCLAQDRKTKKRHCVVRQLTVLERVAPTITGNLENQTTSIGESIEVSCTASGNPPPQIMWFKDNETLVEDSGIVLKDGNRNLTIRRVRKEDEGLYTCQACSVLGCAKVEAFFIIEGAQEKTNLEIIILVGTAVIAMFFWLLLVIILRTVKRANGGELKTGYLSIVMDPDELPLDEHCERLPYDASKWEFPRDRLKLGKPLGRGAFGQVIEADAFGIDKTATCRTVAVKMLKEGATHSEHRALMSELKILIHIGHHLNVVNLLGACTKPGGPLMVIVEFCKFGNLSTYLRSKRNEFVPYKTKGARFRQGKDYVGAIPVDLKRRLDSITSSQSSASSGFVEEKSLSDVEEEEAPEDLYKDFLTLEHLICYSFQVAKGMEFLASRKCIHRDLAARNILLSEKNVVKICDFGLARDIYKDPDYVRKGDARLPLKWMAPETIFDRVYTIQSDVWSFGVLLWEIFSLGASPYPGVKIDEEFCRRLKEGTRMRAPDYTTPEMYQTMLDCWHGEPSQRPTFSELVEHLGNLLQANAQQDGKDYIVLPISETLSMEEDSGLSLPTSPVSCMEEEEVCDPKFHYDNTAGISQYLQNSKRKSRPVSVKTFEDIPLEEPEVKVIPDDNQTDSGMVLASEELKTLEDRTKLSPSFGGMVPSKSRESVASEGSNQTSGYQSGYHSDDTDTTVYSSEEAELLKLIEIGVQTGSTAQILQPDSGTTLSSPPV
Text: as §1

EPHA2 = EPHA2 (Homo sapiens (Human), UniProt P29317); experiment: SelectScreen Kinase Profiling: EPHA2; format: biochemical; conditions: 300-350 nM
Text: as §1

NEK1 = NEK1 (Homo sapiens (Human), UniProt Q96PY6); experiment: SelectScreen Kinase Profiling: NEK1; format: biochemical; conditions: 300-350 nM
Text: as §1

IKBKB (IKK beta) = IKBKB (IKK beta) (Homo sapiens (Human), UniProt O14920); experiment: SelectScreen Kinase Profiling: IKBKB; format: biochemical; conditions: 300-350 nM
Text: as §1

GSK3B (GSK3 beta) = GSK3B (GSK3 beta) (Homo sapiens (Human), UniProt P49841); experiment: SelectScreen Kinase Profiling: GSK3B; format: biochemical; conditions: 300-350 nM
Text: as §1

RPS6KB1 (p70S6K) = RPS6KB1 (p70S6K) (Homo sapiens (Human), UniProt P23443); experiment: SelectScreen Kinase Profiling: RPS6KB1; format: biochemical; conditions: 300-350 nM
Text: as §1

ABL1 = ABL1 (Homo sapiens (Human), UniProt P00519); experiment: SelectScreen Kinase Profiling: ABL1; format: biochemical; conditions: 300-350 nM
Text: as §1

INSR = INSR (Homo sapiens (Human), UniProt P06213); experiment: SelectScreen Kinase Profiling: INSR; format: biochemical; conditions: 300-350 nM
Text: as §1

PRKACA (PKA) = PRKACA (PKA) (Homo sapiens (Human), UniProt P17612); experiment: SelectScreen Kinase Profiling: PRKACA; format: biochemical; conditions: 300-350 nM
Text: as §1

PHKG2 = PHKG2 (Homo sapiens (Human), UniProt P15735); experiment: SelectScreen Kinase Profiling: PHKG2; format: biochemical; conditions: 300-350 nM
Text: as §1

NTRK1 (TRKA) = NTRK1 (TRKA) (Homo sapiens (Human), UniProt P04629); experiment: SelectScreen Kinase Profiling: NTRK1; format: biochemical; conditions: 300-350 nM
Text: as §1

PLK1 = PLK1 (Homo sapiens (Human), UniProt P53350); experiment: SelectScreen Kinase Profiling: PLK1; format: biochemical; conditions: 300-350 nM
Text: as §1

ERBB2 (HER2) = ERBB2 (HER2) (Homo sapiens (Human), UniProt P04626); experiment: SelectScreen Kinase Profiling: ERBB2; format: biochemical; conditions: 300-350 nM
Text: as §1

IGF1R = IGF1R (Homo sapiens (Human), UniProt P08069); experiment: SelectScreen Kinase Profiling: IGF1R; format: biochemical; conditions: 300-350 nM
Text: as §1

MAPK14 (p38 alpha) = MAPK14 (p38 alpha) (Homo sapiens (Human), UniProt Q16539); experiment: SelectScreen Kinase Profiling: MAPK14; format: biochemical; conditions: 300-350 nM
Text: as §1

CHEK1 (CHK1) = CHEK1 (CHK1) (Homo sapiens (Human), UniProt O14757); experiment: SelectScreen Kinase Profiling: CHEK1; format: biochemical; conditions: 300-350 nM
Text: as §1

SYK = SYK (Homo sapiens (Human), UniProt P43405); experiment: SelectScreen Kinase Profiling: SYK; format: biochemical; conditions: 300-350 nM
Text: as §1

RET = RET (Homo sapiens (Human), UniProt P07949); experiment: SelectScreen Kinase Profiling: RET; format: biochemical; conditions: 300-350 nM
Text: as §1

MAPKAPK2 = MAPKAPK2 (Homo sapiens (Human), UniProt P49137); experiment: SelectScreen Kinase Profiling: MAPKAPK2; format: biochemical; conditions: 300-350 nM
Text: as §1

MET (cMet) = MET (cMet) (Homo sapiens (Human), UniProt P08581); experiment: SelectScreen Kinase Profiling: MET; format: biochemical; conditions: 300-350 nM
Chain of MET (cMet) (P08581 25-1390): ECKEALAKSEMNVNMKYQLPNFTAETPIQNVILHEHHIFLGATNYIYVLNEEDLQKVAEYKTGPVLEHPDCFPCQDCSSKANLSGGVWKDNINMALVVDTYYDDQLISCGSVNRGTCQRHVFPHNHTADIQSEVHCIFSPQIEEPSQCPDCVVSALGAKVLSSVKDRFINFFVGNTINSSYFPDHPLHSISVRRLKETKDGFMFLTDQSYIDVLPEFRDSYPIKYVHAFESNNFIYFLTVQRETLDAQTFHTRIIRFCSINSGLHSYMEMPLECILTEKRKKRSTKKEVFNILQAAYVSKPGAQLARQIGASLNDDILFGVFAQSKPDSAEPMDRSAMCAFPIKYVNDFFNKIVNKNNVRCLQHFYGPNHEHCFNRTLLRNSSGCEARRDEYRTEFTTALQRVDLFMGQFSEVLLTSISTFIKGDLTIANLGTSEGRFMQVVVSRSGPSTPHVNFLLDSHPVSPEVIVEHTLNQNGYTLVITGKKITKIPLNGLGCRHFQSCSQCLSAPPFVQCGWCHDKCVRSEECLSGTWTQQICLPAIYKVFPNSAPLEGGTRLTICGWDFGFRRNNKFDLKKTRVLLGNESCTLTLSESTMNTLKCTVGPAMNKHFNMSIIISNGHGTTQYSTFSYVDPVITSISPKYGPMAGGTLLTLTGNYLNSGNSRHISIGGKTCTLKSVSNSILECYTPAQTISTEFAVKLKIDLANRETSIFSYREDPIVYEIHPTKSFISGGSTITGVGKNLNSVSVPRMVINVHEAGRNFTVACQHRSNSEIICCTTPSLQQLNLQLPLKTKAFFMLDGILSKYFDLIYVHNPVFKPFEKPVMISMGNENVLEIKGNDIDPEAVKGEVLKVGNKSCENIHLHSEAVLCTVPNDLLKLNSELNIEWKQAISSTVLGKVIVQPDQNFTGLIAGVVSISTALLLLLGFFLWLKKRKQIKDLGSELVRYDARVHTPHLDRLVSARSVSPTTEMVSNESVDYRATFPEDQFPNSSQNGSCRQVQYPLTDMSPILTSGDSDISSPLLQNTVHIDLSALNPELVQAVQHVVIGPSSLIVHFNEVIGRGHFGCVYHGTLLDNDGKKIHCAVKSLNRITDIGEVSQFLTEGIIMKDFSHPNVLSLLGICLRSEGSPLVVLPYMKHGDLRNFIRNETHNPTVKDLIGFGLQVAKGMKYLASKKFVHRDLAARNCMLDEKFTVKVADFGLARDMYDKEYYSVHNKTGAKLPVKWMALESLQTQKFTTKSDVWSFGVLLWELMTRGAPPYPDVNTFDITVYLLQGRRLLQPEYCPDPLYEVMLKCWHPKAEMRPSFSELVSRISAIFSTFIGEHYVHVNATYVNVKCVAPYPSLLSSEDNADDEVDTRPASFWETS
Text: as §1

Src [2] = conditions: quoted in column head, BMCL 2005 p1931; cited from earlier work
PIM1 = PIM1 (Homo sapiens (Human), UniProt P11309); experiment: SelectScreen Kinase Profiling: PIM1; format: biochemical; conditions: 300-350 nM
Text: as §1

BTK = BTK (Homo sapiens (Human), UniProt Q06187); experiment: SelectScreen Kinase Profiling: BTK; format: biochemical; conditions: 300-350 nM
Text: as §1

PRKCB1 (PKC beta I) = PRKCB1 (PKC beta I) (Homo sapiens (Human), UniProt P05771); experiment: SelectScreen Kinase Profiling: PRKCB1; format: biochemical; conditions: 300-350 nM
Text: as §1

KIT = KIT (Homo sapiens (Human), UniProt P10721); experiment: SelectScreen Kinase Profiling: KIT; format: biochemical; conditions: 300-350 nM
Chain of KIT (P10721 26-976): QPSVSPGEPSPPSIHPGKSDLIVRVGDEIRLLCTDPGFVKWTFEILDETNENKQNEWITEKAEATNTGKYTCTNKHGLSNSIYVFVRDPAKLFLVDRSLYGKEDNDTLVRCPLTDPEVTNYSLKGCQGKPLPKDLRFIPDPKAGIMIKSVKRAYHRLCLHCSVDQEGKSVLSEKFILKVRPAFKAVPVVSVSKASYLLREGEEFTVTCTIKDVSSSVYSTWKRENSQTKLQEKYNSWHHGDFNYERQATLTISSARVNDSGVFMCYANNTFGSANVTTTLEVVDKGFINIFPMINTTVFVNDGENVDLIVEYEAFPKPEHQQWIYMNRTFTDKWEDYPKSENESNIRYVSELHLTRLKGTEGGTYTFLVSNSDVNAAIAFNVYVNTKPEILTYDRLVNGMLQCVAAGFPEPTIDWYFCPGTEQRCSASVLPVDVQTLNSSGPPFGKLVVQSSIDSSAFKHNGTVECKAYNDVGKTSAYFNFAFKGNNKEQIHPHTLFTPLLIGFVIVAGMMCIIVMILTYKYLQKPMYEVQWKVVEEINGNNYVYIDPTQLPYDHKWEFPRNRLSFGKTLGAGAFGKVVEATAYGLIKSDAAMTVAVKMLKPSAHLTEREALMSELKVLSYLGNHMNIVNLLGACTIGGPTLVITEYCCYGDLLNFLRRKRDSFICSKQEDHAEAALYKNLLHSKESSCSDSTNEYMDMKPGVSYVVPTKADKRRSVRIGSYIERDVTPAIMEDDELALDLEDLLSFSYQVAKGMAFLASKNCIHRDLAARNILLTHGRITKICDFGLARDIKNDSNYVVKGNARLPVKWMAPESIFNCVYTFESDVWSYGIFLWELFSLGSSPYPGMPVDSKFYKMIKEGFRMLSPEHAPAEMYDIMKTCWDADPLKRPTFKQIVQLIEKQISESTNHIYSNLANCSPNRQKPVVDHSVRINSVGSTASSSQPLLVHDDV
Text: as §1

PAK4 = PAK4 (Homo sapiens (Human), UniProt O96013); experiment: SelectScreen Kinase Profiling: PAK4; format: biochemical; conditions: 300-350 nM
Text: as §1

FRAP1 (mTOR) = FRAP1 (mTOR) (Homo sapiens (Human), UniProt P42345); experiment: SelectScreen Kinase Profiling: FRAP1; format: biochemical; conditions: 300-350 nM
Text: as §1

MAP4K4 (HGK) = MAP4K4 (HGK) (Homo sapiens (Human), UniProt O95819); experiment: SelectScreen Kinase Profiling: MAP4K4; format: biochemical; conditions: 300-350 nM
Text: as §1

IRAK4 = IRAK4 (Homo sapiens (Human), UniProt Q9NWZ3); experiment: SelectScreen Kinase Profiling: IRAK4; format: biochemical; conditions: 300-350 nM
Text: as §1

JAK3 = JAK3 (Homo sapiens (Human), UniProt P52333); experiment: SelectScreen Kinase Profiling: JAK3; format: biochemical; conditions: 300-350 nM
Text: as §1

SMILES: CCN(CC)CCOc1ccc(Nc2ncc3cc(-c4c(Cl)cccc4Cl)c(=O)n(C)c3n2)cc1 [Compound 1 BMCL, 2005, p1931, reference compound]
- Inhibition AKT1 (PKB alpha) (AKT1 (PKB alpha)): − (Inhibition <75% @ 300-350 nM)
- Inhibition CSNK2A1 (CK2 alpha 1) (CSNK2A1 (CK2 alpha 1)): − (Inhibition <75% @ 300-350 nM)
- Inhibition FLT3 (FLT3): + (Inhibition >75% at 300-350 nM)
- Inhibition DYRK3 (DYRK3): − (Inhibition <75% @ 300-350 nM)
- Inhibition AURKA (Aurora A) (AURKA (Aurora A)): − (Inhibition <75% @ 300-350 nM)
- Inhibition ACVR1B (ALK4) (ACVR1B (ALK4)): + (Inhibition >75% at 300-350 nM)
- Inhibition ROCK1 (ROCK1): − (Inhibition <75% @ 300-350 nM)
- Inhibition SRC (Src [1]): + (Inhibition >75% at 300-350 nM)
- Inhibition MAPK8 (JNK1) (MAPK8 (JNK1)): − (Inhibition <75% @ 300-350 nM)
- Inhibition LCK (LCK): + (Inhibition >75% at 300-350 nM)
- Inhibition CSNK1G2 (CK1 gamma 2) (CSNK1G2 (CK1 gamma 2)): − (Inhibition <75% @ 300-350 nM)
- Inhibition TEK (Tie2) (TEK (Tie2)): − (Inhibition <75% @ 300-350 nM)
- Inhibition FGFR1 (FGFR1): + (Inhibition >75% at 300-350 nM)
- Inhibition MAP2K1 (MEK1) (MAP2K1 (MEK1)): − (Inhibition <75% @ 300-350 nM)
- Inhibition MARK2 (MARK2): + (Inhibition >75% at 300-350 nM)
- Inhibition MAPK1 (ERK2) (MAPK1 (ERK2)): − (Inhibition <75% @ 300-350 nM)
- Inhibition KDR (VEGFR2) (KDR (VEGFR2)): + (Inhibition >75% at 300-350 nM)
- Inhibition EPHA2 (EPHA2): + (Inhibition >75% at 300-350 nM)
- Inhibition NEK1 (NEK1): − (Inhibition <75% @ 300-350 nM)
- Inhibition IKBKB (IKK beta) (IKBKB (IKK beta)): − (Inhibition <75% @ 300-350 nM)
- Inhibition GSK3B (GSK3 beta) (GSK3B (GSK3 beta)): − (Inhibition <75% @ 300-350 nM)
- Inhibition RPS6KB1 (p70S6K) (RPS6KB1 (p70S6K)): − (Inhibition <75% @ 300-350 nM)
- Inhibition ABL1 (ABL1): + (Inhibition >75% at 300-350 nM)
- Inhibition INSR (INSR): − (Inhibition <75% @ 300-350 nM)
- Inhibition PRKACA (PKA) (PRKACA (PKA)): − (Inhibition <75% @ 300-350 nM)
- Inhibition PHKG2 (PHKG2): − (Inhibition <75% @ 300-350 nM)
- Inhibition NTRK1 (TRKA) (NTRK1 (TRKA)): − (Inhibition <75% @ 300-350 nM)
- Inhibition PLK1 (PLK1): − (Inhibition <75% @ 300-350 nM)
- Inhibition ERBB2 (HER2) (ERBB2 (HER2)): − (Inhibition <75% @ 300-350 nM)
- Inhibition IGF1R (IGF1R): − (Inhibition <75% @ 300-350 nM)
- Inhibition MAPK14 (p38 alpha) (MAPK14 (p38 alpha)): + (Inhibition >75% at 300-350 nM)
- Inhibition CHEK1 (CHK1) (CHEK1 (CHK1)): − (Inhibition <75% @ 300-350 nM)
- Inhibition SYK (SYK): − (Inhibition <75% @ 300-350 nM)
- Inhibition RET (RET): + (Inhibition >75% at 300-350 nM)
- Inhibition MAPKAPK2 (MAPKAPK2): − (Inhibition <75% @ 300-350 nM)
- Inhibition MET (cMet) (MET (cMet)): − (Inhibition <75% @ 300-350 nM)
- IC50 (Src [2]): 6 nM
- Inhibition PIM1 (PIM1): − (Inhibition <75% @ 300-350 nM)
- Inhibition BTK (BTK): + (Inhibition >75% at 300-350 nM)
- Inhibition PRKCB1 (PKC beta I) (PRKCB1 (PKC beta I)): − (Inhibition <75% @ 300-350 nM)
- Inhibition KIT (KIT): + (Inhibition >75% at 300-350 nM)
- Inhibition PAK4 (PAK4): − (Inhibition <75% @ 300-350 nM)
- Inhibition FRAP1 (mTOR) (FRAP1 (mTOR)): − (Inhibition <75% @ 300-350 nM)
- Inhibition MAP4K4 (HGK) (MAP4K4 (HGK)): + (Inhibition >75% at 300-350 nM)
- Inhibition IRAK4 (IRAK4): − (Inhibition <75% @ 300-350 nM)
- Inhibition JAK3 (JAK3): + (Inhibition >75% at 300-350 nM)
